Reference: patent publication US9273028B2, “Heterocyclic tyrosine kinase inhibitors” (Biogen MA Inc., priority 2010, dated 2016)

Legend:
Type in all cases: biochemical
Tec = target: T1, Tec (Homo sapiens, UniProt P42680); test: In vitro Tec kinase selectivity assay (Tec-POLYGT-LS); conditions: ATP 25 μM
T1 construct: purchased Carna Biosciences 08-182
T1 sequence (P42680 1-631): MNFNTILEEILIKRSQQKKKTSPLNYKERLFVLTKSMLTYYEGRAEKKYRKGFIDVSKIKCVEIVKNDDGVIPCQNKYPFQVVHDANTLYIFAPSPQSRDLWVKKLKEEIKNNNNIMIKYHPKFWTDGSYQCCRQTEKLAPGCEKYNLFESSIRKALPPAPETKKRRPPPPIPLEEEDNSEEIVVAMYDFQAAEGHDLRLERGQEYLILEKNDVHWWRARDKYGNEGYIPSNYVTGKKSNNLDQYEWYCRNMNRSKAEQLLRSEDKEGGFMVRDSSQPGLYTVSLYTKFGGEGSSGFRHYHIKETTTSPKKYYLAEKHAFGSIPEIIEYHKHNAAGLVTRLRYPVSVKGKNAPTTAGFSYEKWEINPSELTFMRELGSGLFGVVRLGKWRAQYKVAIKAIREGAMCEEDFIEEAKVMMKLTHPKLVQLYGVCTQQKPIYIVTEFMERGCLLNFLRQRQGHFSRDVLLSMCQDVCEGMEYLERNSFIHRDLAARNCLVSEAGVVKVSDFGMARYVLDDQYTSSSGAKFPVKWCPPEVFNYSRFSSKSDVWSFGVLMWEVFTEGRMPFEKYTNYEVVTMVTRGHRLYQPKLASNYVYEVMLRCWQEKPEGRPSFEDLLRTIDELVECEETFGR
Protocol: In Vitro Tec Kinase Selectivity Assay
(§1) The purpose of the Tec in vitro assay is to determine compound potency against Tec through the measurement of IC50. Compound inhibition is measured after monitoring the amount of phosphorylation of a fluorescein-labeled polyGT peptide (Invitrogen PV3610) in the presence of active Tec enzyme (Carna Biosciences 08-182), ATP, and inhibitor. The Tec kinase reaction was done in a black 96 well plate (costar 3694). For a typical assay, a 29 μL aliquot of a ATP/peptide master mix (final concentration; ATP 25 μM, polyGT 100 nM) in kinase buffer (10 mM Tris-HCl pH 7.5, 10 mM MgCl2, 200 μM Na3PO4, 5 mM DTT, 0.01% Triton X-100, and 0.2 mg/ml casein) is added to each well. Next, 1 μL of a 3-fold, 50× compound titration in 100% DMSO solvent is added, followed by adding 20 uL of Tec enzyme mix in 1× kinase buffer (with a final concentration of 0.125 nM). The assay is incubated for 15 minutes before being stopped with 5 μl, of a 220 mM EDTA solution. Aliquots (5 μL) of the kinase reaction are transferred to a low volume white 384 well plate (Corning 3674), and 5 μL of a 2× detection buffer (Invitrogen PV3574, with 2 nM Tb-PY20 antibody, Invitrogen PV3552) is added. The plate is covered and incubated for 45 minutes at room temperature. Time resolved fluorescence (TRF) on Molecular Devices M5 (332 nm excitation; 488 nm emission; 518 nm fluorescein emission) is measured.

BTK = target: T2, BTK (Homo sapiens, UniProt Q06187); test: In vitro BTK kinase assay (BTK-POLYGAT-LS); conditions: IC50 (10 uM ATP)
T2 construct: purchased Upstate 14-552
Protocol: In vitro BTK Kinase Assay
The purpose of the BTK in vitro assay is to determine compound potency against BTK through the measurement of IC50. […] For a typical assay, a 24 μL aliquot of a ATP/peptide master mix (final concentration; ATP 10 μM, polyGAT 100 nM) in kinase buffer (10 mM Tris-HCl pH 7.5, 10 mM MgCl2, 200 μM Na3PO4, 5 mM DTT, 0.01% Triton X-100, and 0.2 mg/ml casein) is added to each well. […] The assay is incubated for 30 minutes before being stopped with 28 μL of a 50 mM EDTA solution. […] The plate is covered and incubated for 45 minutes at room temperature.

Itk = target: T3, Itk (Homo sapiens, UniProt Q08881); test: Itk kinase selectivity assay (Example 142 procedure, Table 3 modifications); conditions: ATP 10 μM
T3 construct: purchased Carna Bioscience 08-181
T3 sequence (Q08881 1-620): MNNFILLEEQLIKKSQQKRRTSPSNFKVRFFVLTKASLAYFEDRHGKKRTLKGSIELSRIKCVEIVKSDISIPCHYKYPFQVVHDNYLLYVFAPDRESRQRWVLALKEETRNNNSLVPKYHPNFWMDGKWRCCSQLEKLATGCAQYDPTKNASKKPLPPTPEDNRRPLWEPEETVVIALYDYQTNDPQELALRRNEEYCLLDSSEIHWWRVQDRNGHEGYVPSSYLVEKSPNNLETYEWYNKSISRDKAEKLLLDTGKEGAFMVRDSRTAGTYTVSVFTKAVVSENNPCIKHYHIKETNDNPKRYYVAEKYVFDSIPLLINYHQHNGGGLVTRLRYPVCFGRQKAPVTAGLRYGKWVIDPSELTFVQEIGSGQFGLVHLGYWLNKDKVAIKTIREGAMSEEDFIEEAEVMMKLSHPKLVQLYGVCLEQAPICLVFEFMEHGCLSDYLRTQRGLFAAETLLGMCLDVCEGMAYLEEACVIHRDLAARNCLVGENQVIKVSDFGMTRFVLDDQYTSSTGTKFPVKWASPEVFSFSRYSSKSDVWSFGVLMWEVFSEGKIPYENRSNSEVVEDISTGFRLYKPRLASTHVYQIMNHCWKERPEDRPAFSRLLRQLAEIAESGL
Protocol: as §1
(§2) Using the procedure described in Example 142, with the modifications shown in Table 3, selectivity for Itk, Txk, and Lck was measured.

Txk = target: T4, Txk (Homo sapiens, UniProt P42681); test: Txk kinase selectivity assay (Example 142 procedure, Table 3 modifications); conditions: ATP 100 μM
T4 construct: purchased Carna Bioscience 08-183
T4 sequence (P42681 1-527): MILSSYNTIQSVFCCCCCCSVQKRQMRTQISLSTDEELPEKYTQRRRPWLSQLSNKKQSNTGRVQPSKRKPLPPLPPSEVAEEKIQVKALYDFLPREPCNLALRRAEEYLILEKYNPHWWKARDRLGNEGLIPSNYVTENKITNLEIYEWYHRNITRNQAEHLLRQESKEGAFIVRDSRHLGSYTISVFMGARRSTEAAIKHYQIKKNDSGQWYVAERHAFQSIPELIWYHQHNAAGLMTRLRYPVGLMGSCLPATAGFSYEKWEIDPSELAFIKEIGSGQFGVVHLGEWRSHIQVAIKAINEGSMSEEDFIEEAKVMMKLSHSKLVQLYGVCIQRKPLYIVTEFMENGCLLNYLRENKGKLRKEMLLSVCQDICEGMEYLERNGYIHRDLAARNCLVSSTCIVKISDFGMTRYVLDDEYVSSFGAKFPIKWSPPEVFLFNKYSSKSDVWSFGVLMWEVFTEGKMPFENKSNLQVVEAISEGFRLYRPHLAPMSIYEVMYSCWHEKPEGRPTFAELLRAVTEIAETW
Protocol: as §1, §2

Lck = target: T5, Lck (Homo sapiens, UniProt P06239); test: Lck kinase selectivity assay (Example 142 procedure, Table 3 modifications); conditions: ATP 5 μM
T5 construct: purchased Carna Bioscience 08-170
Protocol: as §1, §2

T2 sequence (Q06187 whole entry): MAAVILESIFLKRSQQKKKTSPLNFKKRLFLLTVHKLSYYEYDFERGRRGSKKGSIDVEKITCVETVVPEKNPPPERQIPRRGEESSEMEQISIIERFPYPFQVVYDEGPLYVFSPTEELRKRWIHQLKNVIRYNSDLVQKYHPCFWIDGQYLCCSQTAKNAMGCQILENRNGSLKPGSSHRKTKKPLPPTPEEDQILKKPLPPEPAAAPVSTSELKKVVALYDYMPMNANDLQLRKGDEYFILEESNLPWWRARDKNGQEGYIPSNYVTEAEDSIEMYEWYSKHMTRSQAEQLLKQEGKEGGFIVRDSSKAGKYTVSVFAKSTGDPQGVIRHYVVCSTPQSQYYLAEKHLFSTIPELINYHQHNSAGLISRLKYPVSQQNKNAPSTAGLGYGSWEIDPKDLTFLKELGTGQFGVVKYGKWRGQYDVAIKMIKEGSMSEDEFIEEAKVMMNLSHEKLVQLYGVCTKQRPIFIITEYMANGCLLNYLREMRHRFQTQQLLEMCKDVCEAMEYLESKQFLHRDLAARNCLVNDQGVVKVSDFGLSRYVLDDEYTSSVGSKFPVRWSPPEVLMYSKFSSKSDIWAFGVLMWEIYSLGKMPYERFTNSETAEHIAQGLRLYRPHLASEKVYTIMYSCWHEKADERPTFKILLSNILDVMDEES
T5 sequence (P06239 whole entry): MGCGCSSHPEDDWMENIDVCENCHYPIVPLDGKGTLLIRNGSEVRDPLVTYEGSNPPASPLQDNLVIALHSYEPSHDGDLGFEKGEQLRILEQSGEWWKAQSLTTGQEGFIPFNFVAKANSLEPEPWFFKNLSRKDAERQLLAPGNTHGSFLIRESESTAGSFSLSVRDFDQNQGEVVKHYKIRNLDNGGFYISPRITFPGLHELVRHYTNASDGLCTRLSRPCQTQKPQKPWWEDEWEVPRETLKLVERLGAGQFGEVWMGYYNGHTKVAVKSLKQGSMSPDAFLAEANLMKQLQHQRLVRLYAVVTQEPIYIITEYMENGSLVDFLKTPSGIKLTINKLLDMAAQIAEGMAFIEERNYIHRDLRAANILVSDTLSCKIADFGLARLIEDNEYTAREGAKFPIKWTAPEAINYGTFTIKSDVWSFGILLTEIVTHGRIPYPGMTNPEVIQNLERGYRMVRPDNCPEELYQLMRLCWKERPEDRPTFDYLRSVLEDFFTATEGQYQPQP

Row | IC50 (BTK) | SMILES | other results
1 | < 100 nM | O=C(CNc1cc(F)cc(Cl)c1)N1CCCC(Nc2ncnc3[nH]ccc23)C1C(F)(F)F (stereo not shown) [Compound 23] | IC50 (Tec): 100 to 999 nM; IC50 (Itk): 1000 to 10000 nM
2 | < 100 nM | C[C@@H]1[C@H](Nc2ncnc3[nH]ncc23)CCCN1C(=O)CNc1cc(F)cc(Cl)c1 [Compound 25] | IC50 (Tec): 100 to 999 nM; IC50 (Itk): 100 to 999 nM
3 | < 100 nM | C[C@@H]1[C@H](Nc2ncnc3[nH]ncc23)CCCN1C(=O)CNc1cc(Cl)cc(Cl)c1 [Compound 29] | IC50 (Tec): < 100 nM; IC50 (Itk): 100 to 999 nM
4 | < 100 nM | CC1C(Nc2ncnc3[nH]ncc23)CCCN1C(=O)CNc1ccccc1S(=O)(=O)N1CCCCC1 (stereo not shown) [Compound 67] | IC50 (Tec): 100 to 999 nM; IC50 (Itk): 1000 to 10000 nM
5 |  | C[C@@H]1[C@H](Nc2ncnc3[nH]ccc23)CCCN1C(=O)CNc1cc(Cl)cc(Cl)c1 [Compound 89] | IC50 (Tec): < 100 nM; IC50 (Itk): 100 to 999 nM
6 |  | CC1C(Nc2ncnc3[nH]ccc23)CCCN1C(=O)CNc1cc(Cl)cc(Cl)c1 (stereo not shown) [Compound 105] | IC50 (Txk): 1000 to 10000 nM; IC50 (Tec): 100 to 999 nM; IC50 (Lck): 100 to 999 nM; IC50 (Itk): 100 to 999 nM
7 | > 10000 nM | O=C(CNc1ccccc1F)N1CCC[C@H](Nc2ncnc3[nH]ccc23)C1 [Compound 194] | 
8 | > 10000 nM | O=C(CNc1ccccc1C(F)(F)F)N1CCC[C@H](Nc2ncnc3[nH]ncc23)C1 [Compound 195] | 
9 | > 10000 nM | O=C(CNc1ccccc1C(F)(F)F)N1CCC[C@H](Nc2ncnc3[nH]ccc23)C1 [Compound 197] | 
10 | > 10000 nM | O=C(CNc1ccc(C(F)(F)F)cc1)N1CCC[C@H](Nc2ncnc3[nH]ncc23)C1 [Compound 198] | 
11 | > 10000 nM | O=C(CNc1ccccc1Cl)N1CCC[C@H](Nc2ncnc3[nH]ccc23)C1 [Compound 199] | 
12 | 1000 to 10000 nM | O=C(CNc1cccc(Cl)c1)N1CCC[C@H](Nc2ncnc3[nH]ncc23)C1 [Compound 201] | 
13 | > 10000 nM | O=C(CNc1ccccc1Cl)N1CCC[C@H](Nc2ncnc3[nH]ncc23)C1 [Compound 202] | 
14 | > 10000 nM | O=C(CNc1ccccc1F)N1CCC[C@H](Nc2ncnc3[nH]ncc23)C1 [Compound 203] | 
15 | > 10000 nM | O=C(CNc1ccc(C(F)(F)F)cc1)N1CCC[C@H](Nc2ncnc3[nH]ccc23)C1 [Compound 204] | 
16 | > 10000 nM | O=C(CNc1ccc(F)cc1)N1CCC[C@H](Nc2ncnc3[nH]ncc23)C1 [Compound 205] | 
17 | 1000 to 10000 nM | O=C([C@H](Nc1cc(Cl)cc(Cl)c1)C1CC1)N1CCC[C@H](Nc2ncnc3[nH]ccc23)C1 [Compound 206] | 
18 | 100 to 999 nM | O=C([C@H](Nc1cc(Cl)cc(Cl)c1)C1CC1)N1CCC[C@@H](Nc2ncnc3[nH]ccc23)C1 [Compound 207] | 
19 | 100 to 999 nM | C[C@@H](Nc1cc(Cl)cc(Cl)c1)C(=O)N1CCC[C@H](Nc2ncnc3[nH]ccc23)C1 [Compound 208] | 

Row | IC50 (BTK) | SMILES | other results
20 | < 100 nM | CN(c1ncnc2[nH]ncc12)[C@@H]1CCCN(C(=O)CNc2cc(Cl)cc(Cl)c2)C1 [Compound 211] | 
21 | 100 to 999 nM | CN(c1ncnc2[nH]ncc12)[C@H]1CCCN(C(=O)CNc2cc(Cl)cc(Cl)c2)C1 [Compound 212] | 
22 | > 10000 nM | CCCN(CC(C)C)S(=O)(=O)c1ccccc1NCC(=O)N1CC[C@@H](C)[C@H](Nc2ncnc3[nH]ncc23)C1 [Compound 213] | 
23 | 100 to 999 nM | O=C(CNc1cc(F)cc(Cl)c1)N1CCC[C@@H](Nc2ncnc3[nH]ncc23)C1 [Compound 216] | 
24 | 100 to 999 nM | CC(C)CN(CC(C)C)S(=O)(=O)c1ccccc1NCC(=O)N1CCC[C@@H](Nc2ncnc3[nH]ccc23)C1 [Compound 218] | 
25 | > 10000 nM | CC(C)CN(CC(C)C)S(=O)(=O)c1ccccc1NCC(=O)N1CCC[C@H](Nc2ncnc3[nH]ccc23)C1 [Compound 219] | 
26 | 100 to 999 nM | O=C(CNc1ccccc1S(=O)(=O)N1CCCCC1)N1CCC[C@@H](Nc2ncnc3[nH]ccc23)C1 [Compound 221] | 
27 | 1000 to 10000 nM | O=C([C@H](Nc1cc(F)cc(Cl)c1)C1CC1)N1CCC[C@H](Nc2ncnc3[nH]ncc23)C1 [Compound 223] | 
28 | < 100 nM | NC(=O)c1cnc2[nH]ccc2c1NC1CCCN(C(=O)NCc2cc(Cl)cc(Cl)c2)C1 (stereo not shown) [Compound 224] | 
29 | > 10000 nM | O=C(Nc1cc(Cl)cc(Cl)c1)C(=O)N1CCCC(Nc2ncnc3[nH]ccc23)C1 (stereo not shown) [Compound 225] | 
30 | < 100 nM | NC(=O)c1cnc2[nH]ccc2c1N[C@H]1CCCN(C(=O)CNc2cc(Cl)cc(Cl)c2)[C@H]1C(F)(F)F [Compound 226] | IC50 (Txk): < 100 nM; IC50 (Tec): < 100 nM; IC50 (Itk): < 100 nM
31 | < 100 nM | NC(=O)c1cnc2[nH]ccc2c1N[C@@H]1CCCN(C(=O)CNc2cc(Cl)cc(Cl)c2)[C@@H]1C(F)(F)F [Compound 227] | 
32 | < 100 nM | NC(=O)c1cnc2[nH]ccc2c1NC1CCCN(C(=O)CNc2cc(Cl)cc(Cl)c2)C1C(F)(F)F (stereo not shown) [Compound 228] | 
33 | < 100 nM | NC(=O)c1cnc2[nH]ccc2c1NC1CCCN(C(=O)CNc2cc(F)cc(Cl)c2)C1 (stereo not shown) [Compound 229] | 
34 | 100 to 999 nM | CN1CCN(C(=O)c2cnc3[nH]ccc3c2N[C@@H]2CCCN(C(=O)CNc3cc(Cl)cc(Cl)c3)C2)CC1 [Compound 230] | 
35 | 1000 to 10000 nM | Nc1ncnc2c1ccn2C1CCCN(C(=O)CNc2cc(Cl)cc(Cl)c2)C1 (stereo not shown) [Compound 231] | 
36 | > 10000 nM | Nc1ncnc2c1cnn2C1CCCN(C(=O)CNc2cc(Cl)cc(Cl)c2)C1 (stereo not shown) [Compound 232] | 
37 | > 10000 nM | Nc1ncnc2c1ncn2C1CCCN(C(=O)CNc2cc(Cl)cc(Cl)c2)C1 (stereo not shown) [Compound 233] | 
